Experimental data as given in patent US20050282755A1, “Compositions having antimicrobial activity and uses thereof” (priority 2004, published 2005).
Converted amounts (≈) assume the structure as drawn. Residues, ends and D or L forms follow the SMILES beside them. *: point of attachment. Lauroyl = CCCCCCCCCCCC(=O)*

Legend:
Type in all cases: cell-based
[1] = system: Staphylococcus aureus ATCC 29213; experiment: MIC, NCCLS M7-A6 broth microdilution, cation-adjusted Mueller Hinton broth (Table 9, no superscript); conditions: ATCC 29213
Summary of the method: (§1)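 Values come from a broth microdilution assay run in cation-adjusted Mueller Hinton broth with an inoculum of 5×10^5 to 1×10^6 CFU/milliliter, incubated overnight at 37° C and read as absence of visible turbidity.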

[2] = system: Escherichia coli ATCC 25922; experiment: MIC, NCCLS M7-A6 broth microdilution (Table 9, no superscript); conditions: ATCC 25922
Summary of the method: as §1

[3] = system: Pseudomonas aeruginosa ATCC 27853; experiment: as above; conditions: ATCC 27853
Summary of the method: as §1

Salmonella dublin (Lane) = experiment: as above
Summary of the method: as §1

[4] = system: Staphylococcus epidermidis ATCC 12228; experiment: as above; conditions: ATCC 12228
Summary of the method: as §1

[5] = system: Propionibacterium acnes ATCC 6919; experiment: MIC, agar dilution method NCCLS M11-A6, Brucella agar, anaerobic (Table 9, superscript c); conditions: ATCC 6919
Summary of the method: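 MIC taken as the lowest peptide level giving no colonies on the plate. Plates were inoculated to 1.5×10^8 CFU/milliliter, then kept anaerobically at 37° C. for 48-96 hours; method follows NCCLS M11-A6.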

[6] = system: Candida albicans ATCC 18804; experiment: MIC in yeasts, NCCLS M27-A2 broth microdilution, RPMI 1640 (Table 9, letter e); conditions: ATCC 18804
Summary of the method: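 Plates incubated 24 to 48 hours at 37° C, with yeast seeded at 0.5×10^3–2.5×10^3 CFU/milliliter final in RPMI 1640 (glutamine, phenol red indicator). MIC was read as the lowest peptide concentration showing no visible growth.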

| Compound | MIC S. aureus [1] | MIC E. coli [2] | MIC P. aeruginosa [3] | MIC S. dublin (Salmonella dublin (Lane)) | MIC S. epidermidis [4] | MIC P. acnes [5] | MIC C. albicans [6] |
| --- | --- | --- | --- | --- | --- | --- | --- |
| CCCCCCCCCCCC(=O)N[C@@H](CCCNC(=N)N)C(=O)N[C@@H](CO)C(=O)N[C@@H](CCCNC(=N)N)C(=O)N[C@@H](Cc1c[nH]c2ccccc12)C(=O)N[C@@H](CCCNC(=N)N)C(=O)N[C@@H](CC(=O)O)C(=O)N[C@H](C(=O)N[C@@H](C)C(=O)N[C@@H](CCCNC(=N)N)C(=O)N[C@@H](CC(N)=O)C(=O)N[C@@H](Cc1ccccc1)C(=O)N[C@@H](C)C(=O)N[C@@H](CCCNC(=N)N)C(N)=O)C(C)C [Peptide 97, Lauryl-RSRWRDVARNFAR-NH2] (Lauroyl-RSRWRDVARNFAR-NH2) | 16 µg/mL (≈ 8.55 µM) | 32 µg/mL (≈ 17.1 µM) | 32 µg/mL (≈ 17.1 µM) | 32 µg/mL (≈ 17.1 µM) | 2 µg/mL (≈ 1.07 µM) | 64c ug/mL | 8e ug/mL |
| CCCCCCCCCCCC(=O)N[C@@H](CCCNC(=N)N)C(=O)N[C@@H](CO)C(=O)N[C@@H](CCCNC(=N)N)C(=O)N[C@@H](Cc1c[nH]c2ccccc12)C(=O)N[C@@H](CCCNC(=N)N)C(=O)N[C@@H](CC(=O)O)C(=O)N[C@H](C(=O)N[C@@H](C)C(=O)N[C@@H](CCCNC(=N)N)C(=O)N[C@@H](CC(N)=O)C(=O)N[C@@H](Cc1ccccc1)C(=O)N[C@@H](CCSC)C(N)=O)C(C)C [Peptide 98, Lauryl-RSRWRDVARNFM-NH2] (Lauroyl-RSRWRDVARNFM-NH2) | 4 µg/mL (≈ 2.25 µM) | 16 µg/mL (≈ 9.01 µM) | 64 µg/mL (≈ 36.1 µM) | 16 µg/mL (≈ 9.01 µM) | 8 µg/mL (≈ 4.51 µM) | >64c ug/mL | 16e ug/mL |
| CCCCCCCCCCCC(=O)N[C@@H](CCCNC(=N)N)C(=O)N[C@@H](CO)C(=O)N[C@@H](CCCNC(=N)N)C(=O)N[C@@H](Cc1c[nH]c2ccccc12)C(=O)N[C@@H](CCCNC(=N)N)C(=O)N[C@@H](CC(=O)O)C(=O)N[C@H](C(=O)N[C@@H](C)C(=O)N[C@@H](CCCNC(=N)N)C(=O)N[C@@H](CC(N)=O)C(=O)N[C@@H](Cc1ccccc1)C(N)=O)C(C)C [Peptide 99, Lauryl-RSRWRDVARNF-NH2] (Lauroyl-RSRWRDVARNF-NH2) | 4 µg/mL (≈ 2.43 µM) | 32 µg/mL (≈ 19.5 µM) | >64 µg/mL | >64 µg/mL | 4 µg/mL (≈ 2.43 µM) | >64c ug/mL | 32e ug/mL |
| CCCCCCCCCCCC(=O)N[C@@H](CCCNC(=N)N)C(=O)N[C@@H](CO)C(=O)N[C@@H](CCCNC(=N)N)C(=O)N[C@@H](Cc1c[nH]c2ccccc12)C(=O)N[C@@H](CCCNC(=N)N)C(=O)N[C@@H](CC(=O)O)C(=O)N[C@H](C(=O)N[C@@H](C)C(=O)N[C@@H](CCCNC(=N)N)C(=O)N[C@@H](CC(N)=O)C(N)=O)C(C)C [Peptide 100, Lauryl-RSRWRDVARN-NH2] (Lauroyl-RSRWRDVARN-NH2) | 8 µg/mL (≈ 5.34 µM) | >64 µg/mL | >64 µg/mL | >64 µg/mL | 16 µg/mL (≈ 10.7 µM) | >64c ug/mL | 32e ug/mL |
| CCCCCCCCCCCC(=O)N[C@@H](CCCNC(=N)N)C(=O)N[C@@H](CO)C(=O)N[C@@H](CCCNC(=N)N)C(=O)N[C@@H](Cc1c[nH]c2ccccc12)C(=O)N[C@@H](CCCNC(=N)N)C(=O)N[C@@H](CC(=O)O)C(=O)N[C@H](C(=O)N[C@@H](C)C(=O)N[C@@H](CCCNC(=N)N)C(N)=O)C(C)C [Peptide 101, Lauryl-RSRWRDVAR-NH2] (Lauroyl-RSRWRDVAR-NH2) | 4 µg/mL (≈ 2.89 µM) | 32 µg/mL (≈ 23.1 µM) | 32 µg/mL (≈ 23.1 µM) | >64 µg/mL | 2 µg/mL (≈ 1.45 µM) | >64c ug/mL | >64e ug/mL |
| CCCCCCCCCCCC(=O)N[C@@H](CCCNC(=N)N)C(=O)N[C@@H](CO)C(=O)N[C@@H](CCCNC(=N)N)C(=O)N[C@@H](Cc1c[nH]c2ccccc12)C(=O)N[C@@H](CCCNC(=N)N)C(=O)N[C@@H](CC(=O)O)C(=O)N[C@H](C(=O)N[C@@H](C)C(N)=O)C(C)C [Peptide 102, Lauryl-RSRWRDVA-NH2] (Lauroyl-RSRWRDVA-NH2) | 4 µg/mL (≈ 3.26 µM) | >64 µg/mL | 64 µg/mL (≈ 52.2 µM) | >64 µg/mL | 8 µg/mL (≈ 6.52 µM) | >64c ug/mL | 64e ug/mL |
